Results from PubChem BioAssay (NCI).
In brackets after ≈: the same amount, converted by molar mass. Several values for one entry are separate records, joined by “and”; a condition that tells them apart may be missing. Equal values may be shown once.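 Compound exposure: 48 hours, 5 concentrations, 96-well plates. The concentration for 50% growth inhibition is given as GI50. At the TGI there is no net growth.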

Key:
Experiment in all cases: NCI-60 cell line screen, 48 h
MCF7 breast = test system: MCF7 breast
HS 578T breast = test system: HS 578T breast
XF 498 CNS = test system: XF 498 CNS
DLD-1 colon = test system: DLD-1 colon
RXF-631 renal = test system: RXF-631 renal
SNB-78 CNS = test system: SNB-78 CNS
MDA-N = test system: MDA-N
DMS 273 small cell lung = test system: DMS 273 small cell lung

Work on `Cc1cc(NC(=O)C2c3ccccc3C(=O)N(CC(C)C)C2c2cccs2)no1` (configuration not stated) yielded a GI50 (MCF7 breast) of 60 µM, a TGI (MCF7 breast) greater than 100 µM and a GI50 (HS 578T breast) of 86.7 µM. It also gave a TGI (HS 578T breast) greater than 100 µM.

Molecule `Cn1cc(-c2ccc(=O)n(Cc3cccc(-c4ncc(OCCN5CCOCC5)cn4)c3)n2)cn1` has a GI50 (MCF7 breast) of 39.5 µM, a TGI (MCF7 breast) greater than 100 µM and a GI50 (HS 578T breast) greater than 100 µM. For the same molecule, the TGI (HS 578T breast) was greater than 100 µM.

`Cn1ncc2cc3c(Nc4ccc(Cl)cc4)cccc3nc21` was tested, and the TGI (XF 498 CNS) was 20.5 µM, the TGI (DLD-1 colon) was greater than 100 µM and the TGI (RXF-631 renal) was 74.7 µM. The TGI (SNB-78 CNS) was greater than 100 µM.

`CC(=O)O[C@H]1C(=O)[C@@]2(C)C([C@H](OC(=O)c3ccccc3)[C@]3(O)C[C@H](OC(=O)[C@H](O)[C@H](NC(=O)c4ccccc4)c4ccc(Cl)cc4)C(C)=C1C3(C)C)C1(OC(C)=O)CO[C@@H]1C[C@@H]2O` (some centres not stated) showed a GI50 (XF 498 CNS) of 0.0182 µM and a TGI (RXF-631 renal) greater than 100 µM.

Work on `O=C1c2ccccc2-c2c1c1ccccc1c(=O)n2CCO` yielded a TGI (MDA-N) greater than 100 µM, a TGI (MCF7 breast) greater than 100 µM and a TGI (HS 578T breast) greater than 100 µM.

For `O=C(O)CN(c1ccc(Cl)cc1)S(=O)(=O)c1ccccc1`, the TGI (XF 498 CNS) was greater than 100 µM, the TGI (DMS 273 small cell lung) was greater than 100 µM and the TGI (DLD-1 colon) was greater than 100 µM. The TGI (RXF-631 renal) was greater than 100 µM.

Molecule `Cc1cc(C)nc(NS(=O)(=O)c2ccc(Nc3c4ccccc4nc4c(C(=O)Nc5ccc(S(N)(=O)=O)cc5)cccc34)cc2)n1` has a TGI (XF 498 CNS) greater than 100 µM, a TGI (DMS 273 small cell lung) greater than 100 µM and a TGI (DLD-1 colon) greater than 100 µM. The TGI (SNB-78 CNS) was greater than 100 µM.

With `Cc1ccc(-c2c(C#N)c(N)nc(N3CCOCC3)c2C#N)o1` the GI50 (MCF7 breast) was 64.9 µM, the TGI (MCF7 breast) was greater than 100 µM and the GI50 (HS 578T breast) was 39.2 µM. For the same molecule, the TGI (HS 578T breast) was greater than 100 µM.

For `Nc1cccc2c1C(=O)N(C1CCC(=O)NC1=O)C2=O` (configuration not stated), the GI50 (MCF7 breast) was greater than 100 µM, the TGI (MCF7 breast) was greater than 100 µM and the GI50 (HS 578T breast) was greater than 100 µM. It also gave a TGI (HS 578T breast) greater than 100 µM.

`CC1(C)CC(=O)C2=C(C1)NC(SSC1=C(C#N)C(c3ccccc3)C3=C(CC(C)(C)CC3=O)N1)=C(C#N)C2c1ccccc1` (configuration not stated) gave a GI50 (MDA-N) of 21 µg/mL (≈ 33.9 µM), a TGI (MDA-N) of 40.4 µg/mL and a GI50 (MCF7 breast) of 35.6 µg/mL. It also gave a TGI (MCF7 breast) of 85.6 µg/mL, a GI50 (HS 578T breast) of 30.5 µg/mL and a TGI (HS 578T breast) of 68.1 µg/mL.

In the case of `N[C@H]1C2C3CC4C5CC(C42)C1(c1ccccc1)C53` (some centres not stated), the TGI (XF 498 CNS) is reported as greater than 100 µM, the TGI (DMS 273 small cell lung) is reported as greater than 100 µM and the TGI (DLD-1 colon) is reported as greater than 100 µM. It also gave a TGI (SNB-78 CNS) greater than 100 µM.

`COc1cccc(NC(=O)c2sc3nc4c(cc3c2N)CCCC4)c1` gave a GI50 (MCF7 breast) of 0.314 µM, a TGI (MCF7 breast) greater than 100 µM and a GI50 (HS 578T breast) of 0.75 µM. It also gave a TGI (HS 578T breast) of 54.6 µM.

For `O=C1C=C[C@]2(C[C@@H](c3cccc(C(F)(F)F)c3)O[C@@H](c3cccc(C(F)(F)F)c3)O2)O1`, the GI50 (MCF7 breast) was 0.389 µM, the TGI (MCF7 breast) was 3.68 µM and the GI50 (HS 578T breast) was 12.2 µM. The TGI (HS 578T breast) was 60.7 µM.

`NC(N)=NS(=O)(=O)c1ccc(NC(=O)c2cccc3c(Nc4ccc(S(=O)(=O)N=C(N)N)cc4)c4ccc(Cl)cc4nc23)cc1` showed a TGI (XF 498 CNS) greater than 100 µM, a TGI (DMS 273 small cell lung) greater than 100 µM and a TGI (DLD-1 colon) greater than 100 µM. The TGI (SNB-78 CNS) was greater than 100 µM.

`COc1c(OC(C)=O)ccc(/C=C2\N=C(C)OC2=O)c1[N+](=O)[O-]` was tested, and the TGI (DMS 273 small cell lung) was greater than 100 µM, the TGI (DLD-1 colon) was greater than 100 µM and the TGI (RXF-631 renal) was greater than 100 µM. It also gave a TGI (SNB-78 CNS) greater than 100 µM.

In the case of `ClC(=Nc1cccc2ccccc12)N(c1ccccc1)c1ccccc1`, the TGI (MDA-N) is reported as greater than 100 µM, the TGI (MCF7 breast) is reported as greater than 100 µM and the TGI (HS 578T breast) is reported as greater than 100 µM.

In the case of `COC(=O)[C@]12CC[C@@H](C)[C@H](C)[C@@H]1C1=CC[C@@H]3[C@@]4(C)CC(=O)[C@H](O)[C@@]5(C)COC(=C45)C[C@@]3(C)[C@]1(C)CC2`, the GI50 (MCF7 breast) is reported as 16.9 µM, the TGI (MCF7 breast) is reported as 35.6 µM and the GI50 (HS 578T breast) is reported as 18.4 µM. For the same molecule, the TGI (HS 578T breast) was 45 µM.

For `Nc1nc(N)[n+]([O-])c(N)c1NCO`, the TGI (MDA-N) was greater than 100 µM, the TGI (MCF7 breast) was greater than 100 µM and the TGI (HS 578T breast) was greater than 100 µM.

In the case of `CC1(C)N=C(N)N=C(N)N1c1cccc(/C=C/C=C/c2cccc([N+](=O)[O-])c2)c1`, the GI50 (MCF7 breast) is reported as 5.57 µM, the TGI (MCF7 breast) is reported as 22.4 µM and the GI50 (HS 578T breast) is reported as 12.9 µM. It also gave a TGI (HS 578T breast) of 34.7 µM.

Molecule `O=C(c1cccs1)c1c(C(F)(F)F)n([O-])c2ccc(C(F)(F)F)cc2[n+]1=O` has a GI50 (MCF7 breast) of 0.294 µM and a TGI (MCF7 breast) of 0.787 µM.

In the case of `Nc1ccn(C=C=CCO)c(=O)n1`, the GI50 (MCF7 breast) is reported as greater than 1000 µM, the TGI (MCF7 breast) is reported as greater than 1000 µM and the GI50 (HS 578T breast) is reported as greater than 1000 µM. It also gave a TGI (HS 578T breast) greater than 1000 µM.

`COc1ccc(/C(=C/c2cc(OC)c(OC)c(OC)c2)[N+](=O)[O-])cc1` showed a GI50 (HS 578T breast) of 3.21 µM and a TGI (HS 578T breast) of 21.4 µM.

With `CCOC(=O)c1cnc(SCc2ccc(Cl)c(Cl)c2)nc1N1CC1` the GI50 (MCF7 breast) was 1.27 µM, the TGI (MCF7 breast) was 11.4 µM and the GI50 (HS 578T breast) was 2.31 µM. For the same molecule, the TGI (HS 578T breast) was 7.01 µM.

Work on `CCCCCCCCCCCCc1ccc(C(=O)/C=C/C(=O)O)cc1` yielded a GI50 (MCF7 breast) of 1.62 µM, a TGI (MCF7 breast) of 3.3 µM and a GI50 (HS 578T breast) of 7.61 µM. For the same molecule, the TGI (HS 578T breast) was 42.1 µM.

Molecule `COC1C=C(Nc2cccc(Cl)c2)C(=O)C1` (configuration not stated) has a TGI (XF 498 CNS) of 77 µM, a TGI (DMS 273 small cell lung) greater than 100 µM and a TGI (DLD-1 colon) greater than 100 µM. The TGI (SNB-78 CNS) was greater than 100 µM.

`CCOC(=O)CCC(NC(=O)c1ccc(N=Cc2nc3cc(C(F)(F)F)ccc3nc2-c2ccccc2)cc1)C(=O)OCC` (configuration not stated) showed a TGI (XF 498 CNS) of 11.7 µM, a TGI (DMS 273 small cell lung) greater than 100 µM and a GI50 (DLD-1 colon) greater than 100 µM. The TGI (DLD-1 colon) was greater than 100 µM, the GI50 (SNB-78 CNS) was 18.1 µM and the TGI (SNB-78 CNS) was 32 µM and 98.8 µM.

For `CCCCOC(=O)C(=O)C(CC(C(=O)Cc1ccccc1)c1ccccc1)C(=O)C=C(C)C` (configuration not stated), the TGI (MDA-N) was greater than 100 µM, the TGI (MCF7 breast) was greater than 100 µM and the TGI (HS 578T breast) was greater than 100 µM.

`COc1cc(CCc2cc(NC(=O)c3ccc(N4C[C@@H](C)N[C@@H](C)C4)cc3)n[nH]2)cc(OC)c1` was tested, and the GI50 (MCF7 breast) was 3.29 µM and 2.85 µM, the TGI (MCF7 breast) was > 10 µM and 15.8 µM and the GI50 (HS 578T breast) was 1.12 µM and 2.44 µM. For the same molecule, the TGI (HS 578T breast) was > 10 µM and 14.4 µM.

For `O=[N+]([O-])c1ccc(Sc2ncccn2)c([N+](=O)[O-])c1`, the GI50 (MCF7 breast) was 3.68 µM, the TGI (MCF7 breast) was 17.7 µM and the GI50 (HS 578T breast) was 3.83 µM. For the same molecule, the TGI (HS 578T breast) was 18 µM.

With `COc1cc(C(=O)O)c([N+](=O)[O-])c(OC)c1OC` the TGI (MDA-N) was greater than 100 µM, the TGI (MCF7 breast) was greater than 100 µM and the TGI (HS 578T breast) was greater than 100 µM.

Work on `CC(=O)c1ccc(Nc2cc(-n3ccnc3)nc3ccccc23)cc1` yielded a GI50 (MCF7 breast) of 36 µM, a TGI (MCF7 breast) greater than 100 µM and a GI50 (HS 578T breast) of 33.4 µM. For the same molecule, the TGI (HS 578T breast) was greater than 100 µM.

Work on `O=[N+]([O-])c1ccc(N/N=C\c2cc(Cl)ccc2O)nc1` yielded a GI50 (MCF7 breast) of 2.73 µM, a TGI (MCF7 breast) greater than 100 µM and a GI50 (HS 578T breast) of 7.33 µM. For the same molecule, the TGI (HS 578T breast) was greater than 100 µM.

`NC(N)=NC(CC(=O)O)c1ccccc1` (configuration not stated) gave a TGI (MDA-N) greater than 100 µM, a TGI (MCF7 breast) greater than 100 µM and a TGI (HS 578T breast) greater than 100 µM.

In the case of `C[C@H]1[C@H](OC(=O)CCC(=O)O)O[C@@H]2O[C@]3(C)CC[C@H]4[C@H](C)CC[C@@H]1[C@@]24OO3`, the GI50 (MCF7 breast) is reported as 0.698 µM, the TGI (MCF7 breast) is reported as 20.8 µM and the GI50 (HS 578T breast) is reported as 0.986 µM. It also gave a TGI (HS 578T breast) of 36.9 µM.

In the case of `S=c1[nH]nc(COc2ccc(Cl)cc2)o1`, the TGI (DMS 273 small cell lung) is reported as greater than 100 µM, the TGI (DLD-1 colon) is reported as greater than 100 µM and the TGI (RXF-631 renal) is reported as greater than 100 µM. For the same molecule, the TGI (SNB-78 CNS) was greater than 100 µM.
